Key:
PC-12 = test: Cytotoxicity against rat PC12 cells assessed as reduction in cell viability at 0.625 to 20 uM incubated for 72 hrs by MTT assay; type: cell-based; settings: pc-12, 72 h
[1] = target: Serine/threonine-protein kinase mTOR (Homo sapiens, UniProt P42345); test: Inhibition of recombinant human N-terminal FLAG-tagged mTOR (1362 to end residues) using Ulight-4E-BP1 as substrate incubated for 30 mins by fluorescence assay
[2] = Cmax in Sprague-Dawley rat at 10 mg/kg, po measured upto 24 hrs by LC-MS/MS analysis; type: ADME, organism-based; set-up: dose 10 mg/kg, route oral; settings: in vivo
[3] = AUC (0 to infinity) in Sprague-Dawley rat at 10 mg/kg, po measured upto 24 hrs by LC-MS/MS analysis; type: ADME, organism-based; set-up: dose 10 mg/kg, time infinity, route oral; settings: in vivo
[4] = target: Tyrosine-protein kinase ABL1 (Homo sapiens) (UniProt P00519); test: Inhibition of human ABL1 at 100 nM using EAIYAAPFAKKK as substrate by [gamma-33P]-ATP assay
[5] = target: Activin receptor type-1B (Homo sapiens) (UniProt P36896); test: Inhibition of human ALK4 at 100 nM using casein as substrate by [gamma-33P]-ATP assay
Chain of Activin receptor type-1B (Homo sapiens) (P36896 whole entry): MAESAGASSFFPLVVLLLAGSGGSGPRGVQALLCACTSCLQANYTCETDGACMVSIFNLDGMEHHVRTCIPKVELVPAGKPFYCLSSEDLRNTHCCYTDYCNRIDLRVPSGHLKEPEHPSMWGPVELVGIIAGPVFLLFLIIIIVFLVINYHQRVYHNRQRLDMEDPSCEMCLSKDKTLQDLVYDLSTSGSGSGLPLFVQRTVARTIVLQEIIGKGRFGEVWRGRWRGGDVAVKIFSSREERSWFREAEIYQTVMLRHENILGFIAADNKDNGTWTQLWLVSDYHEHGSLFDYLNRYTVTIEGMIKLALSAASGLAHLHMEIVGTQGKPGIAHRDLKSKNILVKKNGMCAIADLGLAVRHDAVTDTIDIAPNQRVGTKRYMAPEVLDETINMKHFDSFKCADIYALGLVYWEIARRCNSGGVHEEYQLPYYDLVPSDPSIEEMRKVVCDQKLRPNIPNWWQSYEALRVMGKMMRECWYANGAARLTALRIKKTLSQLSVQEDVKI

[6] = target: Mitogen-activated protein kinase kinase kinase 5 (Homo sapiens) (UniProt Q99683); test: Inhibition of human ASK1 at 100 nM using MBP as substrate by [gamma-33P]-ATP assay
[7] = target: Serine/threonine-protein kinase BRSK1 (Homo sapiens) (UniProt Q8TDC3); test: Inhibition of human BRSK1 at 100 nM using KKKVSRSGLYRSPSMPENLNRPR as substrate by [gamma-33P]-ATP assay
[8] = target: Hepatocyte growth factor receptor (Homo sapiens) (UniProt P08581); test: Inhibition of human c-MET at 100 nM using KKKSPGEYVNIEFG as substrate by [gamma-33P]-ATP assay
[9] = target: CDK7/Cyclin H/MNAT1 (Homo sapiens) (UniProt P51946+P50613+P51948); test: Inhibition of human CDK7/cyclin-H/MNAT1 at 100 nM using MBP as substrate by [gamma-33P]-ATP assay; type: protein-complex assay
[10] = target: Serine/threonine-protein kinase MRCK gamma (Homo sapiens) (UniProt Q6DT37); test: Inhibition of human DMPK2 at 100 nM using KKRPQRRYSNVF as substrate by [gamma-33P]-ATP assay
[11] = target: Dual specificity tyrosine-phosphorylation-regulated kinase 3 (Homo sapiens) (UniProt O43781); test: Inhibition of human DYRK3 at 100 nM using RRRFRPASPLRGPPK as substrate by [gamma-33P]-ATP assay
Chain of Dual specificity tyrosine-phosphorylation-regulated kinase 3 (Homo sapiens) (O43781 whole entry): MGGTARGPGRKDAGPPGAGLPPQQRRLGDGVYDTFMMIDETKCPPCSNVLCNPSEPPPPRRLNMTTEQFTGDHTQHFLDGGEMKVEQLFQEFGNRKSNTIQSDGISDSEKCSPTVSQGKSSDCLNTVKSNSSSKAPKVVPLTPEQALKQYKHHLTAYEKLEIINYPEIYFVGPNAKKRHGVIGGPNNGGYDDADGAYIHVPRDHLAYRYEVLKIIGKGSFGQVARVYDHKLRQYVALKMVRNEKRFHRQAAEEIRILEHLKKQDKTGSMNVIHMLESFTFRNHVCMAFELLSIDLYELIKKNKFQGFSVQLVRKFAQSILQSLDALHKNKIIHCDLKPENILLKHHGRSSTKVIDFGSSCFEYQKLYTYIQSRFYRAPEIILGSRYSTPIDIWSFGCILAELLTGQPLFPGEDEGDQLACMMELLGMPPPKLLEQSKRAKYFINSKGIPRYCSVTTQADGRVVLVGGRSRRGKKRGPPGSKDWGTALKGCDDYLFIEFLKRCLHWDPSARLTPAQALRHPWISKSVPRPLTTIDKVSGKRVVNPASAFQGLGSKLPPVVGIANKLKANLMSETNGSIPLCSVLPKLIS

[12] = target: Ephrin type-A receptor 5 (Homo sapiens) (UniProt P54756); test: Inhibition of human EPHA5 at 100 nM using poly[Glu:Tyr] (4:1) as substrate by [gamma-33P]-ATP assay
[13] = target: Ephrin type-B receptor 4 (Homo sapiens) (UniProt P54760); test: Inhibition of human EPHB4 at 100 nM using poly[Glu:Tyr] (4:1) as substrate by [gamma-33P]-ATP assay
[14] = target: Inhibitor of nuclear factor kappa-B kinase subunit beta (Homo sapiens) (UniProt O14920); test: Inhibition of human IKKbeta at 100 nM using KKKKERLLDDRHDSGLDSMKDEE as substrate by [gamma-33P]-ATP assay
[15] = target: Tyrosine-protein kinase ITK/TSK (Homo sapiens) (UniProt Q08881); test: Inhibition of human ITK at 100 nM using MBP as substrate by [gamma-33P]-ATP assay
[16] = target: Serine/threonine-protein kinase LATS2 (Homo sapiens) (UniProt Q9NRM7); test: Inhibition of human LATS2 at 100 nM using KKRNRRLSVA as substrate by [gamma-33P]-ATP assay
[17] = target: Serine/threonine-protein kinase ICK (Homo sapiens) (UniProt Q9UPZ9); test: Inhibition of human LCK2 at 100 nM using MBP as substrate by [gamma-33P]-ATP assay
Chain of Serine/threonine-protein kinase ICK (Homo sapiens) (Q9UPZ9 whole entry): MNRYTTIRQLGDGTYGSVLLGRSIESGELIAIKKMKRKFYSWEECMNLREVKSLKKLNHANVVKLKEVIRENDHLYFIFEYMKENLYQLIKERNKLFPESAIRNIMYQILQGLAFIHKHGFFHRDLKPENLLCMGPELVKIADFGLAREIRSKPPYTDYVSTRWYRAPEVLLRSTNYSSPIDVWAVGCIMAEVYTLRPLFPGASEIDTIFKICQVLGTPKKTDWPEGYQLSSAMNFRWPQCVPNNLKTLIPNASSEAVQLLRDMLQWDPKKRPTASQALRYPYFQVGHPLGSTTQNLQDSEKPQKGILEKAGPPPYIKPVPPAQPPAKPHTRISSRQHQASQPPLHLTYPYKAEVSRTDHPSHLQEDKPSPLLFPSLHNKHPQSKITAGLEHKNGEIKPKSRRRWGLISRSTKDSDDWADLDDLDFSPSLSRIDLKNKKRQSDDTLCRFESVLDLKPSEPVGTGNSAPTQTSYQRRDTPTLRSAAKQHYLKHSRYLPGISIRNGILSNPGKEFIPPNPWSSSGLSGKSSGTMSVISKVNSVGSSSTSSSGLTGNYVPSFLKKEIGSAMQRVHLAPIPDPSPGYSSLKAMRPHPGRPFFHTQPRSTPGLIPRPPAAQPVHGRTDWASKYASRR

[18] = target: Serine/threonine-protein kinase greatwall (Homo sapiens) (UniProt Q96GX5); test: Inhibition of human MASTL at 100 nM using ERK2 as substrate by [gamma-33P]-ATP assay
[19] = target: Dual specificity mitogen-activated protein kinase kinase 1 (Homo sapiens) (UniProt Q02750); test: Inhibition of human MEK1 at 100 nM using ERK2 as substrate by [gamma-33P]-ATP assay
Chain of Dual specificity mitogen-activated protein kinase kinase 1 (Homo sapiens) (Q02750 whole entry): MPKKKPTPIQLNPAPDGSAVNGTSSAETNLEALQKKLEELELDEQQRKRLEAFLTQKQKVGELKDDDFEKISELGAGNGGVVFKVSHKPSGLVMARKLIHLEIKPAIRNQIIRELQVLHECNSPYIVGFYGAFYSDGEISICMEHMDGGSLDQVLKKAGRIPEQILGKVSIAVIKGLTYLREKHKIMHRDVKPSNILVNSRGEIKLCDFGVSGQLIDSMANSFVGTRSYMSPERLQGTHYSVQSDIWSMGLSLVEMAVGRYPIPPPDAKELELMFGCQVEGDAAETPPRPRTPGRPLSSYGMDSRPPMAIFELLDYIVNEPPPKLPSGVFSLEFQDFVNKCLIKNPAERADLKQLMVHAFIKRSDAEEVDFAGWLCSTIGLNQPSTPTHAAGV

[20] = target: Serine/threonine-protein kinase Nek1 (Homo sapiens) (UniProt Q96PY6); test: Inhibition of human NEK1 at 100 nM using MBP as substrate by [gamma-33P]-ATP assay
[21] = target: Serine/threonine-protein kinase PAK 6 (Homo sapiens) (UniProt Q9NQU5); test: Inhibition of human PAK6 at 100 nM using RRRLSFAEPG as substrate by [gamma-33P]-ATP assay
Chain of Serine/threonine-protein kinase PAK 6 (Homo sapiens) (Q9NQU5 whole entry, looked up): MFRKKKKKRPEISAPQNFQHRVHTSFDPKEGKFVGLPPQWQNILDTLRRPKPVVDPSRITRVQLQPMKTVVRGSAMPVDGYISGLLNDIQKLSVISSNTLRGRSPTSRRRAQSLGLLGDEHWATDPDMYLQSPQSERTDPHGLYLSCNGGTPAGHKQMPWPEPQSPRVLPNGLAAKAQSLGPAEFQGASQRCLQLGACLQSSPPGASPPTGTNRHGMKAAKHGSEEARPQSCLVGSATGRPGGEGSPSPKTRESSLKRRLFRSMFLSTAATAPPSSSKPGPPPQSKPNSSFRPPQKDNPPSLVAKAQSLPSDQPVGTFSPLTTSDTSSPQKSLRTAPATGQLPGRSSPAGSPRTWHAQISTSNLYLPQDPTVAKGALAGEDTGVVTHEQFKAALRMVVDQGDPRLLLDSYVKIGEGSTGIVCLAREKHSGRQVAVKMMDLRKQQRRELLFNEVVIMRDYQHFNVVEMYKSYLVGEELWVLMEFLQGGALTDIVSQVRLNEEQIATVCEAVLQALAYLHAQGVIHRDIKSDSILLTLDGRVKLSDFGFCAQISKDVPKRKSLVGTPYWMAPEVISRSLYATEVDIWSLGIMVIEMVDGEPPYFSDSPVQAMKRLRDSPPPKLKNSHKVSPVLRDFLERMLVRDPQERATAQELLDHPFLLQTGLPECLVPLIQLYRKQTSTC

[22] = target: Serine/threonine-protein kinase D2 (Homo sapiens) (UniProt Q9BZL6); test: Inhibition of human PKD2 at 100 nM using KKLNRTLSVA as substrate by [gamma-33P]-ATP assay
Chain of Serine/threonine-protein kinase D2 (Homo sapiens) (Q9BZL6 whole entry): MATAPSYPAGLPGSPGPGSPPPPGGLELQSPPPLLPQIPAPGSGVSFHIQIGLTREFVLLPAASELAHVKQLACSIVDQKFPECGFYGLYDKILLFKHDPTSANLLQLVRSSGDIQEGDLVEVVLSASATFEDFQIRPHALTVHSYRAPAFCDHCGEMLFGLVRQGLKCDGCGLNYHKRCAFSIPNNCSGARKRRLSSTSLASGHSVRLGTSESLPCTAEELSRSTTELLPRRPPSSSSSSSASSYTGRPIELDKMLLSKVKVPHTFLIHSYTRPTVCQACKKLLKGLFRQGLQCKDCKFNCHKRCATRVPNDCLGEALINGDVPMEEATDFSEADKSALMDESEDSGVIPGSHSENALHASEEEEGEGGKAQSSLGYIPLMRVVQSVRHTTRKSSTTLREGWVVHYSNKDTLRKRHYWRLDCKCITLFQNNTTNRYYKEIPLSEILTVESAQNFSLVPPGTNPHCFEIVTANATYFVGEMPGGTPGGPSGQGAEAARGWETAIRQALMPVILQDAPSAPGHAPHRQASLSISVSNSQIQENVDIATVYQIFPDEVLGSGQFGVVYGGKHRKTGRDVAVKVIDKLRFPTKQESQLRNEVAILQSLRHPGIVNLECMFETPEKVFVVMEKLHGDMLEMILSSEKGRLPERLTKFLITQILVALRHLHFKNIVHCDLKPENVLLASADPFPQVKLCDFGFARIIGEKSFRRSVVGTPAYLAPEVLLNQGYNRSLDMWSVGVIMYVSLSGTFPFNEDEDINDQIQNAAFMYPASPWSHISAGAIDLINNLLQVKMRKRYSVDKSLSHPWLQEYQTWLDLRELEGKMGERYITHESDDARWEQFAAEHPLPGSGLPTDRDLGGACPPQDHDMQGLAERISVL

[23] = target: Serine/threonine-protein kinase PLK1 (Homo sapiens) (UniProt P53350); test: Inhibition of human PLK1 at 100 nM using casein as substrate by [gamma-33P]-ATP assay
[24] = target: Serine/threonine-protein kinase TAO2 (Homo sapiens) (UniProt Q9UL54); test: Inhibition of human TAOK2 at 100 nM using MBP as substrate by [gamma-33P]-ATP assay
[25] = target: Dual specificity testis-specific protein kinase 2 (Homo sapiens) (UniProt Q96S53); test: Inhibition of human TESK2 at 100 nM using cofilin as substrate by [gamma-33P]-ATP assay
Chain of Dual specificity testis-specific protein kinase 2 (Homo sapiens) (Q96S53 whole entry, looked up): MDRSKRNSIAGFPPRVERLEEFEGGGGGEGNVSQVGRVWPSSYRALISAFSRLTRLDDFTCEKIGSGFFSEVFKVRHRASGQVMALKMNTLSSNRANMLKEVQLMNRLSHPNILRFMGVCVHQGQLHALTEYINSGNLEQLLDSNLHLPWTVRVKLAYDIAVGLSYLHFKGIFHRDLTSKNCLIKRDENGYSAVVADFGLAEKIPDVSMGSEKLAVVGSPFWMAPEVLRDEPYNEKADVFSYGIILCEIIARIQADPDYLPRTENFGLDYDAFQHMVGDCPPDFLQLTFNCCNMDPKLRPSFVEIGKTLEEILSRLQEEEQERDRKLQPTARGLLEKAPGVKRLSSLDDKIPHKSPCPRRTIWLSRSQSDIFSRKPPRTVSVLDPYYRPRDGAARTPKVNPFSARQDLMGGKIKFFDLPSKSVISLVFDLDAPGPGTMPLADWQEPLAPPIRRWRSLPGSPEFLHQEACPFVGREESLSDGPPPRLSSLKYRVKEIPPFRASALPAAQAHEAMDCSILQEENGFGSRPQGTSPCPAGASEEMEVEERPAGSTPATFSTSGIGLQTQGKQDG

[26] = target: Serine/threonine-protein kinase tousled-like 1 (Homo sapiens) (UniProt Q9UKI8); test: Inhibition of human TLK1 at 100 nM using Histone H3 as substrate by [gamma-33P]-ATP assay
Chain of Serine/threonine-protein kinase tousled-like 1 (Homo sapiens) (Q9UKI8 whole entry): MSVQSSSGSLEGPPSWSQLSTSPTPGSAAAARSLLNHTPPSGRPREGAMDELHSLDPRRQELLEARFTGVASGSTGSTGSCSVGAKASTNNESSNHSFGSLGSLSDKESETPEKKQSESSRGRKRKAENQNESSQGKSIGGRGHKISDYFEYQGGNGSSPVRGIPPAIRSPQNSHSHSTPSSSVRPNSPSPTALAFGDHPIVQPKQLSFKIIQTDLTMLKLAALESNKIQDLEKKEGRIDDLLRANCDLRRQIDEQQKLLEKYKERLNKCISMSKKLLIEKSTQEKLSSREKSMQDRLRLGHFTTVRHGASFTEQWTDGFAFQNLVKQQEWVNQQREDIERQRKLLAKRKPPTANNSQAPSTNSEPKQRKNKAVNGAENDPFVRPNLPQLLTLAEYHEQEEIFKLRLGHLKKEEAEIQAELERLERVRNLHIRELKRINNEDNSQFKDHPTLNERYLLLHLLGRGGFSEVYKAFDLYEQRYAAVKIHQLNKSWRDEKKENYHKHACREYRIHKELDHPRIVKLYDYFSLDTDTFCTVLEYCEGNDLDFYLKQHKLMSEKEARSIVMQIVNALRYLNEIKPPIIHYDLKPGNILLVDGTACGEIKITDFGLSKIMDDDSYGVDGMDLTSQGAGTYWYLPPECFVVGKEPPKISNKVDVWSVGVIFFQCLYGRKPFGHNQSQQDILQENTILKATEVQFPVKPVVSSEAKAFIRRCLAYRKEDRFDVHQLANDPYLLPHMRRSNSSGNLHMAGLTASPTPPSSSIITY

[27] = target: AMP-activated protein kinase (AMPK) alpha-1/beta-1/gamma-1 (Homo sapiens) (UniProt P54619+Q9Y478+Q13131); test: Inhibition of human AMPK (A1/B1/G1) at 100 nM using HMRSAMSGLHLVKRR as substrate by [gamma-33P]-ATP assay; type: protein-complex assay
[28] = target: eIF-2-alpha kinase GCN2 (Homo sapiens) (UniProt Q9P2K8); test: Inhibition of human EIF2AK4 at 100 nM using MBP as substrate by [gamma-33P]-ATP assay
A549 = test: Antitumor activity against human A549 cells xenografted in ig dosed BALB/c nude mouse assessed as tumor growth inhibition administered for 30 days measured every 3 days during compound dosing relative to control; type: functional, organism-based
HeLa = test: Antitumor activity against human HeLa cells xenografted in ig dosed BALB/c nude mouse assessed as tumor growth inhibition administered for 30 days measured every 3 days during compound dosing relative to control; type: functional, organism-based

COc1ccc(N2C(=O)COc3ccc(-c4cnc(OC)c(NS(=O)(=O)c5ccc(F)cc5)c4)cc32)cc1
Activity (PC-12): Non-Toxic
IC50 [1]: 13.9 nM
Cmax [2]: 887 ng/mL
AUC(0-inf) [3]: 4750 ng·h/mL
inhibition [4]: 1.19%
inhibition [5]: -0.05%
inhibition [6]: -8.49%
inhibition [7]: 12.8%
inhibition [8]: -7.9%
inhibition [9]: -3.2%
inhibition [10]: -9.5%
inhibition [11]: -8.14%
inhibition [12]: 3.06%
inhibition [13]: 15.9%
inhibition [14]: 14.5%
inhibition [15]: -1.21%
inhibition [16]: 10.9%
inhibition [17]: 7.92%
inhibition [18]: -1.96%
inhibition [19]: 1.42%
inhibition [20]: 19%
inhibition [21]: 2.76%
inhibition [22]: -3.61%
inhibition [23]: 8.68%
inhibition [24]: -3.9%
inhibition [25]: 0.47%
inhibition [26]: 2.5%
inhibition [27]: -4.91%
inhibition [28]: 8.65%
TGI (A549): Dose-dependent effect
TGI (HeLa): Dose-dependent effect

Reference: ChEMBL document CHEMBL4364276, “Discovery of 4-phenyl-2H-benzo[b][1,4]oxazin-3(4H)-one derivatives as potent and orally active PI3K/mTOR dual inhibitors” (Eur J Med Chem, 2019)
